Results reported in patent US11136320B2, “Fused ring derivative used as FGFR4 inhibitor” (JACOBIO PHARMACEUTICALS CO., LTD., priority 2019, dated 2021).

Experiments:
[1] = PK analysis of rats; assay type: in vivo; conditions: SD rats, p.o. (10 mg/kg)
[2] = PK/PD of NOD-SCID mouse (drug concentration in blood and in tumors); assay type: in vivo; conditions: for AUC(0-inf) / Cmax / Tmax / half-life / AUC(0-t) / concentration at 4 h / concentration at 6 h: NOD-SCID, mouse, po, 50 mg/kg, p.o. (50 mg/kg); for AUC(0-inf) / Cmax / Tmax / half-life / AUC(0-t): plasma; for AUC(0-t): read-out: AUC0-6 h; for concentration at 4 h / concentration at 6 h: tumor
Procedure: This experiment conducted when the pharmacological experiment in vivo was performed by gavage administration, wherein, the blood samples and tumor samples were taken at different time points to detect drug concentration in blood and drug concentrations in tumors.
(1) Mode of administration: gavage administration;
(2) Dosage: 50 mg/kg in the gavage administration;
Three mice were sampled at each sampling point;
(4) Blood sample collection: 200 μL of orbital blood was collected at sampling time point for each blood sample. After anticoagulation with heparin, the blood was centrifuged at 5500 rpm for 10 mins. 60 μL of the supernatant was taken and put it into the refrigerator at −80° C. for waiting for testing.
Tumour sample collection: 200-300 mg of each tumor tissue was taken. The tumor weight was marked, quickly freezed in liquid nitrogen and placed into a refrigerator at −80° C. for waiting for testing.
Tumour sample processing: pure water was added into the tumor sample according to a ratio of […] between the weight of the tumor sample and the volume of pure water and then it was homogenized. The homogenate was stored at −90° C. to −60° C. until the sample was analyzed. After 5 μL of acetonitrile/water (v/v=1:1) was added into 50 μL of tumor sample homogenate, 200 μL of acetonitrile (containing Dexamethasone 100 ng/ml as internal standard, or containing Verapamil 2 ng/ml as internal standard) was added. After protein precipitation, the resulting mixture was vortexed for 2 mins at 4° C. with 4600 g, and then centrifuged for 15 mins to obtain the supernatant. 100 μL of the supernatant was taken and added into 200 μL of deionized water. 5500 LC/MS/MS analyser was used for sample injection and analysis, after vortexing for homogeneity. The conditions for chromatographic separation and mass spectrometric analysis were as follows: […]

[3] = target: FGFR4 kinase (Homo sapiens (Human), UniProt P22455)
[4] = test system: Hepatoma cell Hep3B (high expression of FGFR4 and FGF19); assay: Hepatoma cell proliferation inhibition experiment (MTS method); assay type: cell-based

FGFR4 kinase, sequence (P22455 22-802): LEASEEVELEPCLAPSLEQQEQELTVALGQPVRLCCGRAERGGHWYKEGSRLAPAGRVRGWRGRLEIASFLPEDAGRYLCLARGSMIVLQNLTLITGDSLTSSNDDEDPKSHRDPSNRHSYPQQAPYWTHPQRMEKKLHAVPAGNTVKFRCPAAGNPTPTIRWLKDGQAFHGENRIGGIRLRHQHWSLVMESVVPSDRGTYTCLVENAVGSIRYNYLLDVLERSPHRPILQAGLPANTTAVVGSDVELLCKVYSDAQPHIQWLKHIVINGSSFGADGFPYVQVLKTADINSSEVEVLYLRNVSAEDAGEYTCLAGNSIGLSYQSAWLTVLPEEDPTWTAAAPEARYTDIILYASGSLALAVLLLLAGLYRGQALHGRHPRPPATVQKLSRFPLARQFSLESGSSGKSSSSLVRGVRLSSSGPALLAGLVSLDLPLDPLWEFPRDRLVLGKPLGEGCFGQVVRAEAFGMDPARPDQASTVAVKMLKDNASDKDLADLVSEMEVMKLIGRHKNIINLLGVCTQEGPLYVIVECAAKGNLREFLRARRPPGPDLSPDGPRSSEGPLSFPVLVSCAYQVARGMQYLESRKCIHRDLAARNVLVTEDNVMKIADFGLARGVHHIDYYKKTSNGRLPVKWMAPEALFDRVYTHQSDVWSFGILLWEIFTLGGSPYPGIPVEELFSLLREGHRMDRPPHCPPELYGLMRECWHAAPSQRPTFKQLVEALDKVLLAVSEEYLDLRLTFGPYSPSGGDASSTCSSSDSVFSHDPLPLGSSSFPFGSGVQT

CSC[C@@H](C)Nc1cc(NC(=O)N2CCCc3cc(CN4CCN(C)CC4=O)c(C=O)nc32)ncc1C#N [Compound 4, (R)—N-(5-Cyano-4-((1-(methylthio)propan-2-yl)amino)pyridin-2-yl)-7-formyl-6-((4-methyl-2-oxopiperazin-1-yl)methyl)-3,4-dihydro-1,8-naphthyridine-1 (2H)-carboxamide]
exposure amount AUC0-24 h and maximum drug concentration in blood Cmax compared with the reference compound [1]: significantly higher than the reference compound
AUC(0-t) ([1]; rat, plasma, po, read-out: Curve area AUC0-24 h): 4.67 µg·h/mL
Cmax ([1]; rat, plasma, po, read-out: Drug concentration in blood Cmax): 1.45 µg/mL
content in tumor tissue relative to the reference compound ([2]; Hep3B model, 4 h or 6 h): more than 15 times
AUC(0-inf) ([2]; Hep3B model): 3.36 µg·h/mL
Cmax ([2]; Hep3B model): 1.02 µg/mL
Tmax ([2]; Hep3B model): 2 h
half-life ([2]; Hep3B model): 1.48 h
AUC(0-t) ([2]; Hep3B model): 3.02 µg·h/mL
AUC(0-inf) ([2]; SNU878 model): 4.26 µg·h/mL
Cmax ([2]; SNU878 model): 1.23 µg/mL
Tmax ([2]; SNU878 model): 1 h
half-life ([2]; SNU878 model): 2.3 h
AUC(0-t) ([2]; SNU878 model): 3.53 µg·h/mL
concentration at 4 h ([2]; Hep3B model): 1210 ng/g
concentration at 6 h ([2]; Hep3B model, 6 h): 673 ng/g
concentration at 4 h ([2]; SNU878 model): 2340 ng/g
concentration at 6 h ([2]; SNU878 model, 6 h): 1950 ng/g
content in tumor tissue relative to the reference compound ([2]; SNU878 model, 6 h): about twice
inhibitory effect on FGFR4 compared with the reference compound [3]: better inhibitory effect on FGFR4 than the reference compound
inhibitory effect on Hepatoma cell Hep3B compared with the reference compound [4]: better inhibitory effect
IC50 ([4]; Homo sapiens, Hep3B, 120 h incubation, read-out: Hep3B(IC50 μM)): 0.014 µM
